ChEMBL document CHEMBL5620383, “Advances in CD73 inhibitors for immunotherapy: Antibodies, synthetic small molecule compounds, and natural compounds” (Eur J Med Chem, 2023)
Values belong to the compound of their own block, whether it stands above or below them.

Legend:
5'-nucleotidase [1] = target: T1, 5'-nucleotidase (Homo sapiens, UniProt P21589); experiment: Binding affinity to human recombinant CD73 expressed in Sf9 cells assessed as inhibition constant by malachite green based spectrophotometer assay
5'-nucleotidase [2] = target: T1, 5'-nucleotidase; experiment: Binding affinity to CD73 (unknown origin) assessed as inhibition constant
Homo sapiens = organism: Homo sapiens; experiment: Inhibition of adenosine transporter (unknown origin) at 20 uM relative to control
4T1 = experiment: Inhibition of cell migration in mouse 4T1 cells at 10 uM incubated for 48 hrs by Transwell assay; assay type: functional; parameters: scale not given: the % may be the effect or the level left
MDA-MB-231 [3] = experiment: Inhibition of cell migration in human MDA-MB-231 cells at 10 uM incubated for 48 hrs by Transwell assay; assay type: functional; parameters: scale not given: the % may be the effect or the level left
5'-nucleotidase [4] = target: T1, 5'-nucleotidase; experiment: Inhibition of CD73 (unknown origin)
5'-nucleotidase [5] = target: T1, 5'-nucleotidase; experiment: Binding affinity to human recombinant CD73 assessed as inhibition constant
MDA-MB-231 [6] = experiment: Cytotoxicity against human MDA-MB-231 cells assessed as reduction in cell growth at 20 uM incubated for 48 hrs by CCK-8 assay relative to control; assay type: functional; parameters: scale not given: the % may be the effect or the level left
5'-nucleotidase [7] = target: T1, 5'-nucleotidase; experiment: Inhibition of human recombinant CD73 (27 to 549 residues) expressed in Sf9 cells
5'-nucleotidase [8] = target: T1, 5'-nucleotidase; experiment: Inhibition of C-terminal 6His-tagged human recombinant CD73 expressed in CHO cells incubated for 1 hr by malachite green based spectrophotometer assay; assay type: cell-based
5'-nucleotidase [9] = target: T1, 5'-nucleotidase; experiment: Inhibition of CD73 (unknown origin) at 20 uM relative to control
5'-nucleotidase [10] = target: T1, 5'-nucleotidase; experiment: Inhibition of human CD73 expressed in A-375 cells incubated for 15 mins by malachite green based spectrophotometer assay; assay type: cell-based
[11] = Reversal of adenosine induced reduction in IFNgamma production in human PBMC cells; assay type: functional, cell-based

T1 sequence (P21589 whole entry): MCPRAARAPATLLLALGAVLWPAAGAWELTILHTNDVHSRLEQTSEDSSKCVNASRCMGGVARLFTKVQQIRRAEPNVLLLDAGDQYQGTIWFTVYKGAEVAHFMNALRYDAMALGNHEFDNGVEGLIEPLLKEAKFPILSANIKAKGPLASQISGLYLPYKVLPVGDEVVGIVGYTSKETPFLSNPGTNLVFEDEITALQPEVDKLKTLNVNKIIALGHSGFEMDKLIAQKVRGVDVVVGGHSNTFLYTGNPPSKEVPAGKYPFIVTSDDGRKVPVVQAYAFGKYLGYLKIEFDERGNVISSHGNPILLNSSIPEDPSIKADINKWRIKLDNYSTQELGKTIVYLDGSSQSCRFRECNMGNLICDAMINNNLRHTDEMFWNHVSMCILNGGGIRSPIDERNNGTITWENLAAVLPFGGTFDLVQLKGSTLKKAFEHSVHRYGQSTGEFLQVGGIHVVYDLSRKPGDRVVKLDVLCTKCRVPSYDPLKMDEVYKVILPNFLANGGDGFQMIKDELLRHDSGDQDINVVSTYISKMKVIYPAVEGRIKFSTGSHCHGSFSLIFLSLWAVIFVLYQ

Ki (5'-nucleotidase [1]): 451 nM
Compound: CCN(CC)c1nc(Cl)nc2c1ncn2[C@@H]1O[C@H](COCP(=O)(O)OP(=O)(O)C(Br)(Br)P(=O)(O)O)[C@@H](O)[C@H]1O

Compound: C=C(C)[C@@H]1CC[C@]2(C(=O)O)CC[C@]3(C)[C@H](CC[C@@H]4[C@@]5(C)CC[C@H](O)C(C)(C)[C@@H]5CC[C@]43C)[C@@H]12 [BETULINIC ACID]
Ki (5'-nucleotidase [2]): 7800 nM

inhibition (Homo sapiens): 85.7%
Compound: C=C[C@]1(C)C[C@@H](OC(=O)CSCCN(CC)CC)[C@]2(C)[C@H](C)CC[C@]3(CCC(=O)[C@H]32)[C@@H](C)[C@@H]1O [TIAMULIN]
Activity (4T1): 67.01% | Activity (MDA-MB-231 [3]): 76.2%

IC50 (5'-nucleotidase [4]): 470 nM
Compound: C=C(C)[C@@H]1CC[C@]2(C(=O)O)CC[C@]3(C)[C@H](CC[C@@H]4[C@@]5(C)CC[C@H](OC(=O)c6c(F)c(F)c(F)c(F)c6F)C(C)(C)[C@@H]5CC[C@]43C)[C@@H]12

Ki (5'-nucleotidase [5]): 0.318 nM
Compound: CN(Cc1ccccc1F)c1nc(Cl)nc2c1ncn2[C@@H]1O[C@H](COP(=O)(O)OP(=O)(O)O)[C@@H](O)[C@H]1O

Ki (5'-nucleotidase [1]): 10.1 nM
Compound: Cn1c(=O)n([C@@H]2O[C@H](COP(=O)(O)OP(=O)(O)O)[C@@H](O)[C@H]2O)cc/c1=N/Oc1ccccc1

IC50 (5'-nucleotidase [4]): 560 nM
Compound: C=C(C)[C@@H]1CC[C@]2(C(=O)O)CC[C@]3(C)[C@H](CC[C@@H]4[C@@]5(C)CC[C@H](OC(=O)c6ccc(F)cc6)C(C)(C)[C@@H]5CC[C@]43C)[C@@H]12

IC50 (5'-nucleotidase [4]): 740 nM
Compound: C=C(C)[C@@H]1CC[C@]2(C(=O)O)CC[C@]3(C)[C@H](CC[C@@H]4[C@@]5(C)CC[C@H](OC(=O)c6ccc(F)c(F)c6)C(C)(C)[C@@H]5CC[C@]43C)[C@@H]12
Activity (MDA-MB-231 [6]): 87.59%

IC50 (5'-nucleotidase [7]): 860 nM | IC50 (5'-nucleotidase [8]): 860 nM
Compound: O=P(O)(O)CP(=O)(O)CC(O)[C@H]1O[C@@H](n2ccnn2)[C@H](O)[C@@H]1O (stereo not given in full)

inhibition (5'-nucleotidase [9]): 70%
Compound: C=C[C@]1(C)C[C@@H](OC(=O)CO)[C@]2(C)[C@H](C)CC[C@]3(CCC(=O)[C@H]32)[C@@H](C)[C@@H]1O

Ki (5'-nucleotidase [1]): 12600 nM
Compound: Nc1ncnc2c1ncn2COCCOP(=O)(O)CP(=O)(O)O

IC50 (5'-nucleotidase [10]): 3.8 nM | Ki (5'-nucleotidase [5]): 88.4 nM
Compound: Nc1ncnc2c1ncn2[C@@H]1O[C@H](COP(=O)(O)OP(=O)(O)O)[C@@H](O)[C@H]1O [ADENOSINE DIPHOSPHATE]

IC50 (5'-nucleotidase [8]): 50 nM | EC50 [11]: 110 nM
Compound: O=P(O)(O)COC[C@H]1O[C@@H](n2ncc3c(N4CC5(CCc6ccccc65)C4)nc(Cl)nc32)[C@H](O)[C@@H]1O

IC50 (5'-nucleotidase [8]): 250 nM
Compound: COC[C@](CO)(OC[C@H]1O[C@@H](n2ncc3c(NC4CCCC4)nc(Cl)nc32)[C@H](O)[C@@H]1O)P(=O)(O)O
